The results in this text go back to US20100035871A1, “BENZOXAZINE DERIVATIVES AND USES THEREOF” (priority 2006, published 2010).

The target of experiment [1] is T1, human 5-HT2C receptor (Homo sapiens, UniProt P28335).
T1 construct: expressed in transfected cells; host or cells: CHO (Chinese Hamster Ovary) cells; membrane preparation
T1 sequence (P28335 33-458): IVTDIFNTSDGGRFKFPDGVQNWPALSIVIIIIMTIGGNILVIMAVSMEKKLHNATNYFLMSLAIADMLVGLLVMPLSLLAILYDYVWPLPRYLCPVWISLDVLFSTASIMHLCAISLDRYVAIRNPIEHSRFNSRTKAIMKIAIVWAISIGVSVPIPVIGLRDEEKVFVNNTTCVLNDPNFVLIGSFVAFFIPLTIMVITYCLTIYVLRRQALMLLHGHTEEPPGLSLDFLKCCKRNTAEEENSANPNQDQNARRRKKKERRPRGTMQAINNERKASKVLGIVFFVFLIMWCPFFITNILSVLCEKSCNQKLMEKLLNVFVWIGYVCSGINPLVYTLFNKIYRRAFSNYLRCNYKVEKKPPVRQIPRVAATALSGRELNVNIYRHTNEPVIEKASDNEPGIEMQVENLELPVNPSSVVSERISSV
Kind of experiment: 5-HT2C receptor binding, [125I]DOI displacement, membranes of transfected CHO cells.

The target of experiment [2] is T1, human 5-HT2C receptor. As to the kind of experiment: 5-HT2C receptor-stimulated calcium mobilization (FLIPR) in CHO cells. It counts as cell-based. To be noted: for Emax: CHO, read-out: 5-HT2C Function EMax (%); for EC50: calcium mobilization, CHO cells, read-out: 5-HT2C Function EC50.
Where [3] appears, read: read-out: 5-HT2C Binding Ki avg.

SMILES strings stand for the structures. Like-named read-outs stand apart in the source and are kept apart here.

As for `COc1ccccc1-c1cccc2c1OC(CN)CN2C` (racemic) [Example 1, 1-[8-(2-Methoxyphenyl)-4-methyl-3,4-dihydro-2H-1,4-benzoxazin-2-yl]methanamine], the inhibition constant Ki in experiment [1] (setting [3]) was found to be 0.0465 µM. In experiment [2], the Emax came to 60% and the EC50 was 0.049 µM.
Regarding `Cc1cc(Cl)ccc1-c1cccc2c1OC(CN)CN2C` (racemic) [Example 2, 1-[8-(4-Chloro-2-methylphenyl)-4-methyl-3,4-dihydro-2H-1,4-benzoxazin-2-yl]methanamine], in experiment [1] (setting [3]), the Ki came to 0.0148 µM. For the same molecule, in experiment [2], the Emax is 70% and the EC50 is 0.28 µM.
Take `CN1CC(CN)Oc2c(-c3ccc(Cl)cc3Cl)cccc21` (racemic) [Example 3, 1-[8-(2,4-Dichlorophenyl)-4-methyl-3,4-dihydro-2H-1,4-benzoxazin-2-yl]methanamine]: the Ki in experiment [1] (setting [3]) turned out to be 0.0131 µM. Moreover, in experiment [2], the Emax is 70% and the half-maximal effective concentration (EC50) came to 0.122 µM.
Consider `CN1CC(CN)Oc2c(-c3ccccc3C(F)(F)F)cccc21` (racemic) [Example 4, 1-{4-Methyl-8-[2-(trifluoromethyl)phenyl]-3,4-dihydro-2H-1,4-benzoxazin-2-yl}methanamine], for which the inhibitory constant (Ki) in experiment [1] (setting [3]) stood at 0.0086 µM. In experiment [2], the Emax is 70% and the concentration giving a half-maximal response (EC50) amounted to 0.062 µM.
`COc1ccc(-c2cccc3c2OC(CN)CN3C)c(C)c1` (racemic) [Example 5, 1-[8-(4-Methoxy-2-methylphenyl)-4-methyl-3,4-dihydro-2H-1,4-benzoxazin-2-yl]methanamine]: in experiment [1] (setting [3]), the Ki was 0.0104 µM. Moreover, in experiment [2], the maximal response (Emax) amounted to 80% and the EC50 stood at 0.02 µM.
On the same counts, the results for `COc1ccc(-c2cccc3c2OC(CN)CN3C)cc1` (racemic) [Example 6, 1-[8-(4-Methoxyphenyl)-4-methyl-3,4-dihydro-2H-1,4-benzoxazin-2-yl]methanamine] are 0.0121 µM, 80% and 0.07 µM.
`CN1CC(CN)Oc2c(-c3ccccc3F)cccc21` (racemic) [Example 7, 1-[8-(2-Fluorophenyl)-4-methyl-3,4-dihydro-2H-1,4-benzoxazin-2-yl]methanamine]: in experiment [1] (setting [3]), the inhibition constant (Ki) is 0.0195 µM. Moreover, in experiment [2], the Emax worked out at 60% and the EC50 is 0.072 µM.
As to `Cc1ccccc1-c1cccc2c1OC(CN)CN2C` (racemic) [Example 8, 1-[4-Methyl-8-(2-methylphenyl)-3,4-dihydro-2H-1,4-benzoxazin-2-yl]methanamine], the inhibitory constant (Ki) in experiment [1] (setting [3]) was found to be 0.0268 µM. Further, in experiment [2], the Emax came to 70% and the EC50 came out at 0.082 µM.
For `NCC1CNc2cc(F)cc(-c3c(Cl)cccc3Cl)c2O1` (racemic) [Example 10, 1-[8-(2,6-Dichlorophenyl)-6-fluoro-3,4-dihydro-2H-1,4-benzoxazin-2-yl]methanamine] the same measures were 0.0009 µM, 70% and 0.005 µM.
For the molecule `CN1CC(CN)Oc2c(-c3ccccc3Cl)cccc21` (racemic) [Example 11, 1-[8-(2-Chlorophenyl)-4-methyl-3,4-dihydro-2H-1,4-benzoxazin-2-yl]methanamine], the inhibition constant (Ki) in experiment [1] (setting [3]) turned out to be 0.0092 µM. For the same molecule, in experiment [2], the Emax came out at 70% and the EC50 came out at 0.037 µM.
With `NCC1CN(CC2CC2)c2cccc(-c3ccccc3Cl)c2O1` (racemic) [Example 12, 1-[8-(2-Chlorophenyl)-4-(cyclopropylmethyl)-3,4-dihydro-2H-1,4-benzoxazin-2-yl]methanamine], in experiment [1] (setting [3]), the Ki is 0.0227 µM. Also, in experiment [2], the Emax is 40% and the EC50 was determined as 0.166 µM.
For `COc1ccc(-c2cccc3c2O[C@@H](CN)CN3)cc1` [Example 51, 1-[(2S)-8-(4-methoxyphenyl)-3,4-dihydro-2H-1,4-benzoxazin-2-yl]methanamine], the Ki in experiment [1] (setting [3]) amounted to 0.136 µM.
`CSc1ccc2c(c1)C(N1CCN(C)CC1)Cc1ccccc1S2` (stereo not drawn) [Methiothepin, reference compound]: the inhibition constant Ki in experiment [1] (reference compounds, value (95% confidence interval), [125I]DOI binding, read-out: Ki) was 0.0046 µM.
Turning to `COc1cc(CC(C)N)c(OC)cc1I` (stereo not drawn) [[^125I] DOI, reference compound], the equilibrium dissociation constant (Kd) in experiment [1] (saturation binding with increasing concentrations of [125I] DOI, read-out: dissociation constant, KD) was determined as 0.0004 µM.
